Test results as given in US20140107100A1, “Benzoxazepines as Inhibitors of PI3K/mTOR and Methods of Their Use and Manufacture” (EXELIXIS, INC., priority 2010, published 2014).

Target: mTOR/GbL/Raptor (mTORC1) (Homo sapiens, UniProt P42345)
Assay: mTOR/GbL/Raptor (mTORC1) ELISA assay, phosphorylation of 4E-BP1
Assay type: biochemical
Conditions: 0.2 nM mTORC1, 40 uM ATP, 50 nM NHis-tagged 4E-BP1, 120 minutes; read-out: IC50 in this assay (mTORC1 ELISA)
Procedure: The measurement of mTORC1 enzyme activity was performed in an ELISA assay format following the phosphorylation of 4E-BP1 protein. All experiments were performed in the 384-well format. Generally, 0.5 μL DMSO containing varying concentrations of the test Compound was mixed with 15 μL enzyme solution. Kinase reactions were initiated with the addition of 15 μL of substrates-containing solution. The assay conditions were-as follows; 0.2 nM mTORC1, 40 uM ATPand 50 nM NHis-tagged4E-BP1 in20 mM Hepes, pH 7.2, 1 mM DTT, 50 mMNaC1, 10 mM MnC12, 0.02 mg/mL BSA, 0.01% CHAPS, 50 mM β-glycerophosphate. Following an incubation of 120 minutes at anibient temperature, 20 μL of the reaction volume was transferred to a Ni-Chelate-coated 384-well plate. The binding step of the 4E-BP1 protein proceeded for 60 minutes, followed by washing 4 times each with 50 uL of Tris-buffered saline solution (TBS). Anti-phospho-4E-BPl rabbit-IgG ([…]. 1:5000) in 5% BSA-TBST (0.2% Tween-20 in TBS) was added and further incubated for 60 minutes. Incubation with a secondary HRP-tagged anti-IgG was similarly performed after washing off the primary antibody (4 washes of 50 μL). Following the final wash step with TBST, 20 μL of SuperSignal ELISA Femto (Pierce Biotechnology) was added and the luminescence measured using an En Vision plate reader.

Compound: COC(C)c1c(C)nc(C)nc1N1CCOc2c(C)cc(-c3cnc4sc(N)nc4c3)cc2C1 (stereo not shown) [Compound 142, 6-(4-{2,6-dimethyl-5-[1-(methyloxy)ethyl]pyrimidin-4-yl}-9-methyl-2,3,4,5-tetrahydro-1,4-benzoxazepin-7-yl)[1,3]thiazolo[5,4-b]pyridin-2-amine]
- IC50: ≤ 100 nM

Compound: Cc1cc(-c2cccnc2)cc2c1OCCN(c1nc(N)nc(C)c1C(C)C)C2 [Compound 76, 4-methyl-5-(1-methylethyl)-6-(9-methyl-7-pyridin-3-yl-2,3-dihydro-1,4-benzoxazepin-4(5H)-yl)pyrimidin-2-amine]
- IC50: 100 to 500 nM

Compound: Cc1cc(-c2ccc3c(c2)OCO3)cc2c1OCCN(c1nc(N)nc(C)c1C(C)C)C2 [Compound 73, 4-[7-(1,3-benzodioxol-5-yl)-9-methyl-2,3-dihydro-1,4-benzoxazepin-4(5H)-yl]-6-methyl-5-(1-methylethyl)pyrimidin-2-amine]
- IC50: 100 to 500 nM

Compound: Cc1cc(-c2cnc3sc(N)nc3c2)cc2c1OCCN(c1nc(CN(C)C(C)(C)C)nc(C)c1C(C)C)C2 [Compound 100, 6-{4-[2-{[(1,1-dimethylethyl)(methyl)amino]methyl}-6-methyl-5-(1-methylethyl)pyrimidin-4-yl]-9-methyl-2,3,4,5-tetrahydro-1,4-benzoxazepin-7-yl}[1,3]thiazolo[5,4-b]pyridin-2-amine]
- IC50: 100 to 500 nM

Compound: COCCc1c(C)ncnc1N1CCOc2c(C)cc(-c3cnc4sc(N)nc4c3)cc2C1 [Compound 129, 6-(9-methyl-4-{6-methyl-5-[2-(methyloxy)ethyl]pyrimidin-4-yl}-2,3,4,5-tetrahydrio-1,4-benzoxazepin-7-yl)[1,3]thiazolo[5,4-b]pyridin-2-amine]
- IC50: ≤ 100 nM

Compound: Cc1cc(-c2cnc3sc(N)nc3c2)cc2c1OCCN(c1nc(C3CNC3)nc(C)c1C(C)C)C2 [Compound 133, 6-{4-[2-azetidin-3-yl-6-methyl-5-(1-methylethyl)pyrimidin-4-yl]-9-methyl-2,3,4,5-tetrahydro-1,4-benzoxazepin-7-yl}[1,3]thiazolo[5,4-b]pyridin-2-amine]
- IC50: ≤ 100 nM

Compound: Cc1cc(-c2cnc3sc(N)nc3c2)cc2c1OCCN(c1nc(C(F)(F)F)nc(C)c1C(C)C)C2 [Compound 128, 6-{9-methyl-4-[6-methyl-5-(1-methylethyl)-2-(trifluoromethyl)pyrimidin-4-yl]-2,3,4,5-tetrahydro-1,4-benzoxazepin-7-yl}[1,3]thiazolo[5,4-b]pyridin-2-amine]
- IC50: ≤ 100 nM

Compound: CCN(Cc1nc(C)c(C(C)C)c(N2CCOc3c(C)cc(-c4cnc5nc[nH]c5c4)cc3C2)n1)CC(F)F [Compound 171, N-ethyl-2,2-difluoro-N-({4-[7-(1H-imidazo[4,5-b]pyridin-6-yl)-9-methyl-2,3-dihydro-1,4-benzoxazepin-4(5H)-yl]-6-methyl-5-(1-methylethyl)pyrimidin-2-yl}methyl)ethanamine]
- IC50: 100 to 500 nM

Compound: Cc1cc(-c2cnc3sc(N)nc3c2)cc2c1OCCN(c1nc(C(O)C(F)(F)F)nc(C)c1C(C)C)C2 (stereo not shown) [Compound 94, 1-{4-[7-(2-amino[1,3]thiazolo[5,4-b]pyridin-6-yl)-9-methyl-2,3-dihydro-1,4-benzoxazepin-4(5H)-yl]-6-methyl-5-(1-methylethyl)pyrimidin-2-yl}-2,2,2-trifluoroethanol]
- IC50: ≤ 100 nM

Compound: Cc1cc(-c2cnc3sc(N)nc3c2)cc2c1OCCN(c1nc(CN3CCCC3)ncc1C(C)C)C2 [Compound 92, 6-{9-methyl-4-[5-(1-methylethyl)-2-(pyrrolidin-1-ylmethyl)pyrimidin-4-yl]-2,3,4,5-tetrahydro-1,4-benzoxazepin-7-yl}[1,3]thiazolo[5,4-b]pyridin-2-amine]
- IC50: ≤ 100 nM

Compound: CCc1c(Cl)nc(N)nc1N1CCOc2c(C)cc(-c3cnc4sc(N)nc4c3)cc2C1 [Compound 54, 6-[4-(2-amino-6-chloro-5-ethylpyrimidin-4-yl)-9-methyl-2,3,4,5-tetrahydro-1,4-benzoxazepin-7-yl}[1,3]thiazolo[5,4-b]pyridin-2-amine]
- IC50: ≤ 100 nM

Compound: Cc1cc(-c2cnc3sc(N)nc3c2)cc2c1OCCN(c1nc(CN(C)C)nc(C)c1C(C)C)C2 [Compound 31, 6-(4-{2-[(dimethylamino)methyl]-6-methyl-5-(1-methylethyl)pyrimidin-4-yl}-9-methyl-2,3,4,5-tetrahydro-1,4-benzoxazepin-7-yl)[1,3]thiazolo[5,4-b]pyridin-2-amine]
- IC50: ≤ 100 nM

Compound: Cc1cc(-c2cnc3sc(N)nc3c2)cc2c1OCCN(c1ncc(F)c(N)n1)C2 [Compound 35, 6-[4-(4-amino-5-fluoropyrimidin-2-yl)-9-methyl-2,3,4,5-tetrahydro-1,4-benzoxazepin-7-yl][1,3]thiazolo[5,4-b]pyridin-2-amine]
- IC50: 100 to 500 nM

Compound: Cc1cc(-c2cnc3sc(N)nc3c2)cc2c1OCCN(c1nc(CO)nc(C)c1C(C)C)C2 [Compound 64, {4-[7-(2-amino[1,3]thiazolo[5,4-b]pyridin-6-yl)-9-methyl-2,3-dihydro-1,4-benzoxazepin-4(5H)-yl]-6-methyl-5-(1-methylethyl)pyrimidin-2-yl}methanol]
- IC50: ≤ 100 nM

Compound: Cc1cc(-c2cnc(Cl)c(NS(C)(=O)=O)c2)cc2c1OCCN(c1nc(N)ncc1C(F)(F)F)C2 [Compound 14, N-(5-{4-[2-amino-5-(trifluoromethyl)pyrimidin-4-yl]-9-methyl-2,3,4,5-tetrahydro-1,4-benzoxazepin-7-yl}-2-chloropyridin-3-yl)methanesulfonamide]
- IC50: ≤ 100 nM

Compound: Cc1ncc(C(C)C)c(N2CCOc3c(C)cc(-c4cnc5sc(N)nc5c4)cc3C2)n1 [Compound 107, 6-{9-methyl-4-[2-methyl-5-(1-methylethyl)pyrimidin-4-yl]-2,3,4,5-tetrahyro-1,4-benzoxazepin-7-yl}[1,3]thiazolo[5,4-b]pyridin-2-amine]
- IC50: ≤ 100 nM

Compound: Cc1cc(-c2cnc3sc(N)nc3c2)cc2c1OCCN(c1ncnc(Cl)c1C(C)(C)O)C2 [Compound 131, 2-{4-[7-(2-amino[1,3]thiazolo[5,4-b]pyridin-6-yl)-9-methyl-2,3-dihydro-1,4-benzoxazepin-4(5H)-yl]-6-chloropyrimidin-5-yl}propan-2-ol]
- IC50: 100 to 500 nM

Compound: CCN(CCF)Cc1nc(C)c(C(C)C)c(N2CCOc3c(C)cc(-c4cnc5sc(N)nc5c4)cc3C2)n1 [Compound 159, 6-{4-[2-{[ethyl(2-fluoroethyl)amino]methyl}-6-methyl-5-(1-methylethyl)pyrimidin-4-yl]-9-methyl-2,3,4,5-tetrahydro-1,4-benzoxazepin-7-yl}[1,3]thiazolo[5,4-b]pyridin-2-amine]
- IC50: ≤ 100 nM

Compound: COCCc1nc(C)c(C(C)C)c(N2CCOc3c(C)cc(-c4cnc(Cl)c(NS(C)(=O)=O)c4)cc3C2)n1 [Compound 160, N-[2-chloro-5-(9-methyl-4-{6-methyl-5-(1-methylethyl)-2-[2-(methyloxy)ethyl]pyrimidin-4-yl}-2,3,4,5-tetrahydro-1,4-benzoxazepin-7-yl)pyridin-3-yl]methanesulfonamide]
- IC50: ≤ 100 nM

Compound: CNc1nc(C)c(C(C)C)c(N2CCOc3c(C)cc(-c4cnc5sc(N)nc5c4)cc3C2)n1 [Compound 53, 6-{9-methyl-4-[6-methyl-2-(methylamino)-5-(1-methylethyl)pyrimidin-4-yl]-2,3,4,5-tetrahydro-1,4-benzoxazepin-7-yl}[1,3]thiazolo[5,4-b]pyridin-2-amine]
- IC50: ≤ 100 nM

Compound: CC(=O)NCc1nc(C)c(C(C)C)c(N2CCOc3c(C)cc(-c4cnc5sc(N)nc5c4)cc3C2)n1 [Compound 119, N-({4-[7-(2-amino[1,3]thiazolo[5,4-b]pyridin-6-yl)-9-methyl-2,3-dihydro-1,4-benzoxazepin-4(5H)-yl]-6-methyl-5-(1-methylethyl)pyrimidin-2-yl}methyl)acetamide]
- IC50: ≤ 100 nM

Compound: Cc1cc(-c2cnc3sc(N)nc3c2)cc2c1OCCN(c1nc(CN(C)CCF)nc(C)c1C(C)C)C2 [Compound 156, 6-{4-[2-{[(2-fluoroethyl)(methyl)amino]methyl}-6-methyl-5-(1-methylethyl)pyrimidin-4-yl]-9-methyl-2,3,4,5-tetrahydro-1,4-benzoxazepin-7-yl}[1,3]thiazolo[5,4-b]pyridin-2-amine]
- IC50: ≤ 100 nM

Compound: COCCc1nc(C)c(C(C)C)c(N2CCOc3c(C)cc(-c4cnc5sc(N)nc5c4)cc3C2)n1 [Compound 155, 6-(9-methyl-4-{6-methyl-5-(1-methylethyl)-2-[2-(methyloxy)ethyl]pyrimidin-4-yl}-2,3,4,5-tetrahydro-1,4-benzoxazepin-7-yl)[1,3]thiazolo[5,4-b]pyridin-2-amine]
- IC50: ≤ 100 nM

Compound: Cc1cc(-c2cnc3sc(N)nc3c2)cc2c1OCCN(c1nc(N3CC(O)C3)nc(C)c1C(C)C)C2 [Compound 139, 1-{4-[7-(2-amino[1,3]thiazolo[5,4-b]pyridin-6-yl)-9-methyl-2,3-dihydro-1,4-benzoxazepin-4(5H)-yl]-6-methyl-5-(1-methylethyl)pyrimidin-2-yl}azetidin-3-ol]
- IC50: ≤ 100 nM

Compound: Cc1cc(-c2cnc3sc(N)nc3c2)cc2c1OCCN(c1nc(CN)nc(C)c1C(C)C)C2 [Compound 134, 6-{4-[2-(aminomethyl)-6-methyl-5-(1-methylethyl)pyrimidin-4-yl]-9-methyl-2,3,4,5-tetrahydro-1,4-benzoxazepin-7-yl}[1,3]thiazolo[5,4-b]pyridin-2-amine]
- IC50: ≤ 100 nM
